Experiments:
[1] = tested on: hiPSC-derived pancreatic progenitors; assay: Expression of pancreatic developmental markers after cofactor treatment of differentiating hiPSCs (FIG. 5, FIG. 8); type: cell-based, human
Method: Human induced pluripotent stem cells (hiPSCs) are cultured and maintained using mTeSR Plus medium (Stem Cell Technologies, Canada), then plated on 1:50 Matrigel-coated dishes (Corning, USA). Upon reaching 70-80% confluency, cells are differentiated into pancreatic progenitors using a protocol described by Memon et al. (Memon et al. Stem Cell Research and Therapy, 9, Article 15, 2018). Cells are treated with different concentrations of FAD (0.25 μM, 0.5 μM, and 1 μM) (Sigma-Aldrich, Germany) during the four days of pancreatic progenitor stage of in vitro differentiation. The control cells are treated with water.

[2] = tested on: hiPSC-derived pancreatic progenitors; assay: Immunostaining of PDX1 and NKX6.1 in FAD-treated pancreatic progenitors; type: cell-based, human; details: different FAD concentrations during four days of pancreatic progenitor stage; FIG. 6
Method: (§1) Human induced pluripotent stem cells (hiPSCs) are cultured and maintained using mTeSR Plus medium (Stem Cell Technologies, Canada), then plated on 1:50 Matrigel-coated dishes (Corning, USA). Upon reaching 70-80% confluency, cells are differentiated into pancreatic progenitors using a protocol described by Memon et al. (Memon et al. Stem Cell Research and Therapy, 9, Article 15, 2018). Cells are treated with different concentrations of FAD (0.25 μM, 0.5 μM, and 1 μM) (Sigma-Aldrich, Germany) during the four days of pancreatic progenitor stage of in vitro differentiation. The control cells are treated with water. After the treatment period, cells are fixed and immunostaining is performed using previously reported protocols by Memon et al. Cells are also collected for total protein extraction using Radioimmunoprecipitation Assay (RIPA) lysis buffer and are normalized to 20 ng/μL before SDS-PAGE separation. Nitrocellulose membranes are blocked using 15% skimmed milk in 0.5% tris-buffered saline (TBST). Membranes are then incubated with primary antibodies overnight at 4° C. Membranes are washed with 0.5% TBST and secondary antibodies are added for 1 hour at room temperature. Membranes are developed using SuperSignal West Pico Chemiluminescent substrate (Pierce, Loughborough, UK) and are then visualized using iBright™ CL 1000 Imaging System (Invitrogen).

SOX2 HMG domain = target: T1, SOX2 HMG domain (Homo sapiens, UniProt P48431); assay: UV-visible absorbance spectroscopy of purified SOX2 HMG domain for bound cofactor; type: binding; details: purified SOX2 HMG domain from bacterial expression
T1 construct: made in house

SOX9 HMG domain [3] = target: T2, SOX9 HMG domain (Mus musculus, UniProt Q04887); assay: 1D-PAGE in-gel digest and LC-MS/MS of SOX9 HMG domain to identify bound cofactor; type: binding; details: purified SOX9 HMG domain; FIG. 2
T2 construct: construct containing HMG and N-terminal domain, 1-173 amino acids; His tag (pET-28a) (N); made in house; host or cells: E. coli BL21(DE3)-RIL
T2 sequence (Q04887 1-173): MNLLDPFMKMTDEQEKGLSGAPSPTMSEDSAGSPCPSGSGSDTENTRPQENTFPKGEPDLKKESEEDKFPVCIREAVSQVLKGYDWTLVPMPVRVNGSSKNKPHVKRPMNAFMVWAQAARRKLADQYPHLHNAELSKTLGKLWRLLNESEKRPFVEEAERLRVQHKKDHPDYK
Method: MS data are analyzed and annotated with Genedata Expressionist software (v.13.0.1) using the Peptide Mapping Tool. The raw MS data are processed using two Genedata modules: Refiner MS for data pre-processing, and Analyst for data post-processing and statistical analyses. Briefly, after noise reduction, LC-MS1 base peaks are detected and their properties calculated (m/z and RT boundaries, m/z and RT center values, intensity). Chromatograms are further aligned based on the RT spectra using a 2 min range. Individual peaks are grouped into clusters and MS/MS data associated to these clusters are annotated with the Peptide Mapping Tool using the FASTA sequence of sp|Q04887|SOX9_MOUSE Transcription factor SOX-9. The search is performed with a peptide tolerance of 0.1 Da, a MS/MS tolerance of 0.01 Da, two allowed missed cleavages, and only annotations with a minimum score of 10 are considered. As variable modifications, the following parameters are applied: carbamidomethyl (C) maximum: 2 per sequence allowed: anywhere, FAD (C), FAD (H), FAD (Y) maximum: 2 per sequence allowed: anywhere, FMN (S), FMN (T) maximum: 2 per sequence allowed: anywhere, pyridoxal phosphate (K) maximum: 2 per sequence allowed: anywhere, and pyridoxal phosphate H2 (K) maximum: 2 per sequence allowed: anywhere.

[4] = tested on: hiPSC-derived pancreatic progenitors; assay: Western blotting of transcription factors in FAD-treated pancreatic progenitors; type: cell-based, human; details: FIG. 7
Method: as §1

SOX9 HMG domain [5] = target: T2, SOX9 HMG domain; assay: UV-visible absorbance spectroscopy of purified SOX9 HMG domain for bound cofactor; type: binding; details: purified SOX9 HMG domain from bacterial expression; FIG. 1E
Method: Purified SOX9 proteins of 2-4 mg/ml concentration are used for reading the absorbance of bind cofactors. The UV-Vis spectra are obtained on a UV-Vis spectrophotometer BMS (Biotechnology Medical Science) UV-1602, scanning from 300 nm to 800 nm. The baseline is corrected with the buffer used to prepare the protein samples.

T1 sequence (P48431 41-109 limits assumed): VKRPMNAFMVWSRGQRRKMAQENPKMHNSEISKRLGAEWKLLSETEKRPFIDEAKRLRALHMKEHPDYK

| absorbance peak at approximately 420 nm (FAD-bound protein) (SOX2 HMG domain) | cofactor binding detected by LC-MS/MS peaks (SOX9 HMG domain [3]) | Structure (SMILES) | relative changes in NGN3 and NKX6.1 ([1]; FAD added to early stage differentiation, FIG. 5) | expression of NGN3 ([1]; about 0.5 μM FAD, FIG. 8A) | co-expression of PDX1 and NKX6.1 (efficiency of pancreatic progenitor differentiation) [2] | PTF1a level (exocrine marker) ([4]; 0.5 μM and 1 μM FAD) | SOX9 level ([4]; FAD 0.25 μM, 0.5 μM, 1 μM, four days of pancreatic progenitor stage) | absorbance peak at approximately 420 nm (FAD-bound protein) (SOX9 HMG domain [5]) | expression of NGN3 ([1]; about 4 μM-8 μM PLP, FIG. 8B) | expression of PTF1a ([1]; about 4 μM-8 μM PLP, FIG. 8B) |
| --- | --- | --- | --- | --- | --- | --- | --- | --- | --- | --- |
| no obvious peak | suggestive of FAD, FMN and PLP binding | Cc1cc2nc3c(=O)[nH]c(=O)nc-3n(C[C@H](O)[C@H](O)[C@H](O)COP(=O)(O)OP(=O)(O)OC[C@H]3O[C@@H](n4cnc5c(N)ncnc54)[C@H](O)[C@@H]3O)c2cc1C [FAD, Flavin Adenine Dinucleotide] | appears to increase pancreatic developmental factors | along with NGN3 | most of the pancreatic progenitor cells co-expressed PDX1 and NKX6.1 | increased | increases gradually with increased FAD concentrations | peak at approximately 420 nm characteristic of an FAD-bound protein | – | – |
| – | suggestive of FAD, FMN and PLP binding | Cc1ncc(COP(=O)(O)O)c(C=O)c1O [PLP, Pyridoxal 5′-phosphate] | – | – | – | – | – | – | high expression of NGN3 | appearance of PTF1a |
| – | suggestive of FAD, FMN and PLP binding | Cc1cc2nc3c(=O)[nH]c(=O)nc-3n(C[C@H](O)[C@H](O)[C@H](O)COP(=O)(O)O)c2cc1C [FMN, Flavin Mononucleotide] | – | – | – | – | – | – | – | – |
